The source of these data is patent US20080248134A1, “Oral compositions, use and combinations of N-[2-(dimethylamino)ethyl]-2,6 dimethyl-1-oxo-1,2-dihydrobenzo[b]-1,6-naphthyridine-4-carboxamide and closely related analogues thereof” (Auckland Uniservices Limited, priority 2005, published 2008).

For one assay, the system named is NZMp2. Nature of the assay: Human tumour xenograft. Format: in vivo. Also noted: key to Activity: Active: NCI Criterion for activity tumour volume T/C ≦ 40%; Inactive: NCI Criterion for activity tumour volume T/C ≦ 40%. Particulars: NZMp2, Melanoma. How it is done:
The compound of Formula II was evaluated in a number of xenografts using cell lines derived from cervical, endometrial, lung and colon carcinomas, leukaemia and melanoma (Table 3). These studies indicate that the compound according to the present invention has significant activity in xenografts.
A general note: A xenograft is tissue or cells of one species grown in another, often human tumour cells in immunodeficient mice.

Assay [1] concerns NZM4 melanoma line (mutant p53). Description: Induction of cell cycle arrest, flow cytometry. Format: cell-based, human. Conditions: NZM4, 0.3 μM for one hour, grown up to 9 days. The protocol:
(§1) Flow cytometry was used to determine the magnitude and duration of cell cycle arrest induced by the compound of the present invention. Two human melanoma lines were used in a preliminary study, one having wild-type p53 status (NZM6) and one having mutant p53 status (NZM4). Cells were exposed to the compound of Formula II for one hour at a concentration of 0.3 μM, washed free of drug and grown for up to a further 9 days.
Background: Flow cytometry measures light scatter and fluorescence of single cells or particles in a stream.

Assay [2] deals with NZM6 melanoma line (wild-type p53). Description: Induction of cell cycle arrest, flow cytometry. Format: cell-based, human. Particulars: NZM6, 0.3 μM for one hour, grown up to 9 days. The protocol:
as §1

Assay [3] relates to p53, p21 and Fas in HCT116 (TP53 wild type). Nature of the assay: Induction of the p53 pathway, western blotting. Format: cell-based, human. From the text: The p53 protein is thought to play a major role in the induction of apoptosis in tumour cells (Levine A J. p53, the cellular gatekeeper for growth and division. Cell. 1997. 88(3):323-331). The p53 protein is a transcriptional activator, which acts in response to DNA damage and other stress pathways, and increases expression of proteins such as Fas and p21^WAF1. […] Products were detected by western blotting.

In assay [4] the test system is melanoma tissue taken from a patient. Nature of the assay: Response of a melanoma taken directly from a cancer patient, xenograft in immunodeficient mice. Format: in vivo, human. Particulars: two doses of 5.9 mg/kg, 7 days apart. The protocol: Metastatic melanoma is particularly resistant to current chemotherapy. Melanoma tissue taken from a patient at surgery was implanted subcutaneously in immunodeficient mice. After three months, the tumour in one animal was excised and transferred to further immunodeficient mice. The tumours were grown to a diameter of approximately 4 mm before treatment and the compound of Formula II was administered in two doses of 5.9 mg/kg, 7 days apart.

As to `Cc1cccc2cc3c(=O)n(C)cc(C(=O)NCCN(C)C)c3nc12` [Formula II, N-[2-(dimethylamino)ethyl]-2,6 dimethyl-1-oxo-1,2-dihydrobenzo[b]-1,6-naphthyridine-4-carboxamide], in the assay with NZMp2, the outcome was Active. For the same molecule, in the assay on NZMp2 (tumour volume T/C), the “% control” value worked out at 22%. Further, the cell cycle arrest result in assay [1] was “minimal effect in G1-phase but an extended effect in G2-phase”; in assay [2], “extended arrest of NZM6 cells in both G1- and G2-phase”. For the same molecule, the “induction of p53, p21 and Fas” value in assay [3] (24 hours at higher cell density (approaching confluence)) is recorded as “induced these proteins”; in assay [3] (24 hours exposure), “much greater response”; in assay [3] (earlier times (4-10 hours)), “induced these proteins”. The melanoma growth result in assay [4] is reported as “strong inhibition of melanoma growth”.
